Source: patent publication US20060040876A1, “Modulation of peroxisome proliferator-activated receptors” (priority 2004, published 2006)

Experiments:
[1] = target: T1, recombinant mouse PGR-2 protein (Mus musculus, UniProt Q8VDQ1); experiment: Substrate specificity and kinetics of recombinant PGR-2 (NADPH oxidation, absorbance at 490 nm); assay type: biochemical; details: for specific activity as substrate of PGR-2: 15-keto PGE2 replaced with the test substrate, 0.5 mM NADPH, 37° C., 10 minutes
T1 construct: GST (N); made in house; host or cells: E. coli
Protocol: Mouse PGR-2 was recombinantly expressed in E. coli as a GST fusion protein following standard procedures. The recombinant PGR-2 protein thus obtained was used to determine substrate specificity and enzymatic kinetics.
(§1) Enzymatic activity was determined as follows. 10 μg of the recombinant mouse PGR-2 protein was incubated at 37° C. in a reaction buffer containing 0.1M Tris-HCl (pH 7.4), 0.5 mM NADPH, and 0.57 mM 15-keto PGE2. The reaction was conducted at 37° C. in the dark for 10 minutes and terminated by adding 700 μl of a buffer which contained 50 mM potassium hydrogen phthalate, pH 3.0, and 1% Tween 20. 200 μl of a color development reagent, which contained 790 μM indonitrotetrazolium chloride, 60 μM phenazene methosulfate, and 1% Tween 20, was added to oxidize any unreacted NADPH. Absorbance at 490 nm was measured by an ELISA plate reader. A standard curve was generated using reaction buffers containing serially diluted amounts of NADPH.
Substrate specificity of PGR-2 was determined using the just-described procedure, except that 15-keto PGE2 was replaced with each of six prostaglandin substrates, each of three downstream metabolites, or leukotriene B4.
Unlike PGR/LTB4DH, PGR-2 used NADPH as a cofactor much more efficiently than NADH.

[2] = system: 15-keto prostaglandin-Δ^13-reductase; experiment: 15-keto prostaglandin-Δ^13-reductase inhibition assay; assay type: biochemical; details: different concentrations of inhibitor, incubated 2 hours at 37° C.
Protocol: as §1, with “of NADPH. […]” for “of NADPH.”
A series of compounds were tested for their inhibitory effects on 15-keto prostaglandin-Δ^13-reductase activity. The inhibition assay was performed following the procedure described above. Different concentrations of 15-keto prostaglandin-Δ^13-reductase inhibitors were added to the reaction mixture and incubated for 2 hours at 37° C.

3T3-L1 cells [3] = experiment: Glucose transport assay, uptake of 2-deoxy-D-[3H]glucose in differentiated 3T3-L1 cells; assay type: cell-based, mouse
Protocol: 3T3-L1 cells were induced to differentiate in the same manner as described above. A glucose transport assay was performed by measuring uptake of 2-deoxy-D-[3H]glucose as described by Fingar et al. See Fingar et al., Endocrinology 134:728-735. 1.67 μM of the inhibitor or 45 nM of a PPAR agonist, i.e., AVANDIA, was added to the cells. 10 μM cytochalasin-B was used to measure background glucose uptake levels.

3T3-L1 cells [4] = experiment: Adipogenesis in 3T3-L1 cells, lipid droplets stained with oil-red O; assay type: cell-based, mouse; details: 14 μM, day 2 to 4 during adipogenesis; stained at day 6
Protocol: (§2) The effect of prostaglandin on PPAR-gamma activity in adipocytes was investigated. After treatment with a medium that induces cell differentiation, 3T3-L1 cells were treated from day 2 to 4 during adipogenesis with 14 μM 15-keto PGE2, 13,14-dihydro-15-keto PGE2, 15-keto PGF2α, 13,14-dihydro-15-keto PGF2α, or 4.5 μM of BRL49653, a PPAR-gamma agonist. See Forman et al., Cell (1995) 83:803-812. At day 6, aggregates of lipid droplets were stained with oil-red O for observation. […] After being induced to differentiate for two days, the 3T3-L1 cells were transfected with a reporter gene.

IRS-1 = IRS-1 protein expression in 3T3-L1 cells; assay type: cell-based, mouse
Excerpt: (§3) Also examined was the ability of 15-keto PGE2 to induce protein expression of adipogenesis-specific, PPAR-gamma target genes, i.e., IRS-1 and -2.

IRS-2 = IRS-2 protein expression in 3T3-L1 cells; assay type: cell-based, mouse; details: in the presence of insulin and dexamethasone
Excerpt: as §3

aP2 = aP2 expression in 3T3-L1 cells; assay type: cell-based, mouse; details: even in the absence of MIX
[5] = system: PPAR-gamma1 and PPAR-gamma2; experiment: PPAR-gamma1 and PPAR-gamma2 protein expression in 3T3-L1 cells; assay type: cell-based, mouse; details: 15-keto PGE2 and MIX added with insulin and dexamethasone
PPAR-gamma = target: T2, PPAR-gamma (Homo sapiens, UniProt P37231); experiment: Luciferase reporter with PPAR-gamma ligand-binding domain fused to GAL4 DNA-binding domain in 3T3-L1 cells; assay type: cell-based
T2 construct: expressed in transfected cells; host or cells: 3T3-L1 cells
T2 sequence (P37231 238-503 limits assumed): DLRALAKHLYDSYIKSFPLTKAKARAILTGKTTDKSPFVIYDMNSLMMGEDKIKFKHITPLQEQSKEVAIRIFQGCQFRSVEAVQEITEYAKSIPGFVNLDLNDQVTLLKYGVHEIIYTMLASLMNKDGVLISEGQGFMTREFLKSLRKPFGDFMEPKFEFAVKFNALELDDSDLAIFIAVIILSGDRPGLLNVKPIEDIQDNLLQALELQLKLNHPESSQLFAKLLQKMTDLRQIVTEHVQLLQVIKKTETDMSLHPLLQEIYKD
Excerpt: A luciferase reporter gene was transfected to 3T3-L1 cells together with the ligand-binding domain of PPAR-alpha, PPAR-gamma or PPAR-delta fused to a yeast GAL4 DNA-binding domain.

endogenous PPAR = experiment: Reporter gene assay of endogenous PPAR activity in differentiating 3T3-L1 cells; assay type: cell-based, mouse; details: 3T3-L1 cells induced to differentiate for two days, transfected with reporter gene
Protocol: as §2

[6] = system: Female diabetic mice (C57BLKS/J-m+/+Lep^db); experiment: Blood glucose levels in insulin-resistant, hyperglycemic diabetic mice; assay type: in vivo, mouse; details: 25 mg/kg intraperitoneally twice a day for two days
Protocol: The in vivo effect of another inhibitor, 2,2′-dihydroxychalcone, on glucose metabolism was also investigated. Female diabetic mice were obtained from the Jackson Laboratory (C57BLKS/J-m+/+Lep^db, 12 to 13 weeks old). These mice were characterized as insulin-resistant and hyperglycemic. 25 mg/kg of 2,2′-dihydroxychalcone (n=8) or placebo (n=4, final concentration against body fluid: 0.5% DMSO/1% ethanol) was injected intraperitoneally to the mice twice a day for two days. The mice were then fasted from the 48th hour through 52nd hour after the first injection. Blood samples were collected from the retro-orbital sinus before the first injection, and every two hours after two days of treatment. Blood glucose levels were measured by an electrode-type blood glucose meter (HORIBA, AntSense II, Japan).

T1 sequence (Q8VDQ1 whole entry): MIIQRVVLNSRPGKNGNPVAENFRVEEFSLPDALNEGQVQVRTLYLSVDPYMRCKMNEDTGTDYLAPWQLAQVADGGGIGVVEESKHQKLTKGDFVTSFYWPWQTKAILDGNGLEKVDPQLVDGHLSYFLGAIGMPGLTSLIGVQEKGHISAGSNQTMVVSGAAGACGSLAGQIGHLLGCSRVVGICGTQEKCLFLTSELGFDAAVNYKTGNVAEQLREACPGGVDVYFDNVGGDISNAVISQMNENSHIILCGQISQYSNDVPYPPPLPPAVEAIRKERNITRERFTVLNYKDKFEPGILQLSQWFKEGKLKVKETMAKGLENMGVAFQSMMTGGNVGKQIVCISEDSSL

specific activity as substrate of PGR-2 [1]	inhibition of 15-keto prostaglandin-Δ^13-reductase activity [2]	Compound	other results
	inhibited	COc1cc(O)c(C(=O)/C=C/c2cc(Br)ccc2O)c(OC)c1 [5-bromo-2,2′-dihydroxy-4′,6′-dimethoxychalcone]	
	inhibited	O=c1c(O)c(-c2ccc(O)cc2)oc2cc(O)cc(O)c12 [kaempferol]	
	inhibited	O=C(/C=C/c1cccc(O)c1)c1ccccc1O [3,2′-dihydroxychalcone]	
	inhibited	O=c1cc(-c2ccc(O)c(O)c2)oc2cc(O)cc(O)c12 [luteolin]	
	inhibited	CC(=O)CC(c1ccccc1)c1c(O)c2ccccc2oc1=O (stereo not shown) [warfarin, reference compound]	
	inhibited	O=C(/C=C/c1ccccc1O)c1ccc(O)cc1O [2,2′,4′-trihydroxychalcone]	
	inhibited	O=C(/C=C/c1ccccc1)c1ccc(O)cc1O [2′,4′-dihydroxychalcone]	
	inhibited	O=c1c(O)c(-c2cccc(O)c2)oc2ccccc12 [3,3′-dihydroxyflavone]	
	inhibited	O.O.O=c1c(O)c(-c2ccc(O)c(O)c2)oc2cc(O)cc(O)c12 [quercetin dehydrate]	
	inhibited	O=c1cc(-c2ccccc2)oc2cc(O)cc(O)c12 [5,7-dihydroxyflavone]	
	inhibited	O=C(/C=C/c1ccc(O)cc1)c1ccccc1O [4,2′-dihydroxychalcone]	
	inhibited	O=C(/C=C/c1ccccc1O)c1cc(O)ccc1O [2,2′,5′-trihydroxychalcone]	
	inhibited	O=C(/C=C/c1ccccc1O)c1ccccc1O [2,2′-dihydroxychalcone]	blood glucose levels compared to placebo controls [6]: significant reduction

The remaining lines, values behind:

Compound	specific activity as substrate of PGR-2 [1]	inhibition of 15-keto prostaglandin-Δ^13-reductase activity [2]	other results
CCCCC[C@H](O)/C=C/[C@@H]1[C@@H](C/C=C\CCCC(=O)O)[C@H](O)C[C@H]1O [PGF2β]	no specific activity was detected		
O=c1oc2ccccc2c(O)c1Cc1c(O)c2ccccc2oc1=O [3,3′-methylene-bis(4-hydroxycoumarin)]		inhibited	ability to enhance glucose uptake compared with AVANDIA (3T3-L1 cells [3]; 1.67 μM inhibitor vs 45 nM AVANDIA): comparable to that of AVANDIA; increase of glucose uptake (3T3-L1 cells [3]; 1.67 μM inhibitor, 100 nM insulin, differentiated 3T3-L1 cells): 30 folds
CCCCCC(=O)/C=C/[C@@H]1[C@@H](CCCCCCC(=O)O)[C@@H](O)C[C@H]1O [15-keto PGF1α]	reacted specifically		
CCCCC[C@H](O)/C=C/[C@@H]1[C@@H](CC(=O)CCCCC(=O)O)[C@@H](O)C[C@H]1O [6-keto PGF1α]	no specific activity was detected		
CCCCCC(=O)/C=C/[C@H]1[C@H](O)CC(=O)[C@@H]1C/C=C\CCCC(=O)O [15-keto PGE2]			adipogenesis (lipid droplets, oil-red O) (3T3-L1 cells [4]): effectively enhanced adipogenesis at a level similar to BRL49653; amount of IRS-1 protein (IRS-1): did not increase; IRS-2 expression (IRS-2): enhanced the expression to a level similar to MIX; expression of aP2 (aP2): strongly induced; PPAR-gamma1 and PPAR-gamma2 expression [5]: significantly enhanced; efficiency of PGR-2 catalyzed conversion into 13,14-dihydro-15-keto prostaglandin ([1]; kinetics studies, recombinant PGR-2): most efficiently; activation of PPAR-gamma (GAL4-LBD luciferase reporter) (PPAR-gamma): activated; endogenous PPAR activity (reporter gene) (endogenous PPAR): enhanced endogenous PPAR activity significantly
CCCCCC(=O)CC[C@@H]1[C@@H](C/C=C\CCCC(=O)O)[C@@H](O)C[C@H]1O [13,14-dihydro-15-keto PGF2α, reference compound]	no specific activity was detected		endogenous PPAR activity (reporter gene) (endogenous PPAR): failed to increase PPAR activity
O=c1cc(O)c2ccccc2o1 [4-hydroxycoumarin]		inhibited	
CCCCC[C@H](O)/C=C/[C@@H]1[C@@H](C/C=C\CCCC(=O)O)[C@@H](O)C[C@@H]1O [11b-PGF2α]	no specific activity was detected		
CCCCCC(=O)/C=C/[C@H]1[C@H](O)CC(=O)[C@@H]1CCCCCCC(=O)O [15-keto PGE1]	reacted specifically		
CCCCCC(=O)CC[C@H]1[C@H](O)CC(=O)[C@@H]1C/C=C\CCCC(=O)O [13,14-dihydro-15-keto PGE2, reference compound]	no specific activity was detected		endogenous PPAR activity (reporter gene) (endogenous PPAR): failed to increase PPAR activity
CCCCCC(=O)/C=C/[C@@H]1[C@@H](C/C=C\CCCC(=O)O)[C@@H](O)C[C@H]1O [15-keto PGF2α]	reacted specifically		activation of PPAR-gamma (GAL4-LBD luciferase reporter) (PPAR-gamma): activated; endogenous PPAR activity (reporter gene) (endogenous PPAR): enhanced endogenous PPAR activity significantly
CCCCC/C=C\C[C@@H](O)/C=C/C=C/C=C\[C@@H](O)CCCC(=O)O [leukotriene B4]	no specific activity was detected		
CCCCCC(=O)CCC1C(=O)CC(O)C1C/C=C\CCCC(=O)O (stereo not shown) [13,14-dihydro-15-keto PGD2]	no specific activity was detected		
